Laboratory results reported in US20130324437A1, “METHOD FOR IDENTIFYING ANTIMICROBIAL COMPOUNDS AND DETERMINING ANTIBIOTIC SENSITIVITY” (THE REGENTS OF THE UNIVERSITY OF CALIFORNIA, priority 2010, published 2013).
Converted amounts (≈) assume the structure as drawn. Read-outs that look alike come from different tables or passages of the source.

Legend:
[1] = tested on: proton motive force (PMF); assay: DiSC3(5) fluorometer assay of proton motive force; format: cell-based, Bacillus subtilis; conditions: vancomycin at the MIC
Protocol: (§1) FIG. 8. Affect of various treatments on Bacillus subtilis cell architecture and permeability. (A-J) Cytological profiling. Cells were stained with the membrane stain FM 4-64 (red) and the membrane impermeable nucleotide stains Sytox Green (green) and DAPI (blue) and visualized 2 hours after treatment unless otherwise noted. […] Cells imaged after 1 hr of treatment. […] Cells were imaged after 8 hours. (K) Cell permeability as assessed by Sytox staining intensity per pixel.
The fluorescent stain DiSC3(5) was used in a fluorometer assay, in which cells with a decreased PMF show increased fluorescence.

Bacillus subtilis = assay: Cytological profiling of Bacillus subtilis (FM 4-64, DAPI, Sytox Green); format: cell-based; conditions: FIG. 8
Protocol: as §1
The effects of these drugs on the Gram positive bacterium Bacillus subtilis was determined using the fluorescent membrane stain FM 4-64 and two nucleotide stains that are membrane impermeable (DAPI and Sytox).

[2] = tested on: Escherichia coli and Bacillus subtilis cells; assay: Summary of cytological profiles by mechanism of action (FIG. 1); format: cell-based; conditions: example compound of the MOA class
Protocol: FIG. 1. Summary of cytological profiles for drugs with the indicated mechanisms of action (MOA).
To determine if different classes of antimicrobials can be distinguished based on cytological parameters, comparative cytological analysis of Escherichia coli and Bacillus subtilis cells treated with several different classes of antibiotics was performed. […] Also included were nonspecific inhibitors such as bleach, ethidium bromide, and sodium docecyl sulfate. […] This analysis is expanded to molecules with unknown MOAs as described below.

E. coli imp strain = assay: Cytological profiling of E. coli imp strain (DAPI staining intensity); format: cell-based, Escherichia coli; conditions: 10 minute exposure, FIG. 10
Protocol: FIG. 10. Measurements of DAPI staining for single cells after 10 minute exposure to nisin, Spirohexenolide A, chlorothricin, and DMSO. […] Cells treated with nisin, SpiroA, and chlorothricin show increased fluorescence comparted to untreated control.
Cytological profiling was used to determine the MOA of spirohexenolide A. A culture of the E. coli imp strain was grown in LB media at 30° C. and spirohexenolide A was added at various concentrations. After either 10 minutes or two hours, samples were stained with FM 4-64 and DAPI for examination with a fluorescence microscope. The cytological profile of spirohexenolide A was identical to that for nisin, a compound that forms channels in the membrane. Chromosome stains such as DAPI and Sytox green are partially excluded from the cell by the cytoplasmic membrane in untreated cells, but are taken up in cells treated with permeablizers such as nisin.

[3] = tested on: gram positive bacteria and the E. coli imp mutant; conditions: Kang et al. (2009); Pache & Champman (1972); cited from earlier work
E. coli strain JP750 [4] = format: cell-based, Escherichia coli; conditions: for cell length: cell elongation, FIG. 2 / FIG. 3; for chromosome morphology: 2 hours treatment; for chromosomes exhibiting doughnut or ring shape: lethal dose (MIC), 2 hours, n=50
Protocol: The dose-dependent cytological profiles for the various classes of antibiotics was determined. In general, a series of cultures of the appropriate strain were grown in LB at 30° C. until the cultures reached a density of approximately 2×10^8 cells/ml, at which point the compound of interest was added so that the final concentrations ranged from 0 to 200 μg/ml. For each compound, samples representing ⅕×, 1× and 5× the MIC were examined. Samples were taken at various times after addition of drug (ranging from 0.2 to 3 hours). The cells were stained with FM 4-64 (1 μg/ml) to visualize the cell membranes and DAPI (5 μg/ml) to visualize the chromosome (Pogliano et al. (1999) Mol. Microbiol. 31:1149).
Images of each stain and any fluorescently-tagged fusion protein present in the strain were then captured using a high resolution microscope. Cell length and width, chromosome length and shape, distance of the chromosome from each cell pole, the number of chromosomes per cell, and the presence and distribution of GFP (or GFP fusions) present within the cells were measured.
Strain JP750 expresses a SeqA-GFP fusion from an IPTG dependent promoter. SeqA-GFP forms fluorescent foci that indicate the position of DNA replication forks/hemimethylated DNA within the cell (Brendler et al. (2000) EMBO 19:6249). After two hours of growth, samples were taken, stained with FM 4-64 (1 μg/ml) to visualize the cell membranes, and DAPI (5 μg/ml) to visualize the chromosome.

E. coli strain JP750 [5] = conditions: Pogliano et al. 1997; cited from earlier work
[6] = tested on: E. coli strains JP750 or W3110; assay: Determination of MIC (growth in LB with antibiotic); format: cell-based; conditions: Escherichia coli, read-out: minimal inhibitory concentration (MIC)
Protocol: The minimal inhibitory concentration (MIC) of each antibiotic was determined for E. coli strains JP750 or W3110, and for Bacillus subtilis strain PY79. A test tube containing 5 ml of LB was inoculated with a single colony and grown until the culture reached a density of approximately 2×10^8 cells/ml. Small inoculums (20 μl) of this culture were then diluted into LB containing various concentrations of antibiotic ranging from 0 to 200 μg/ml and the cultures were incubated overnight at 30° C. The MIC was the lowest concentration that blocked growth.

E. coli = assay: Growth curve (optical density at 600 nm); format: cell-based, Escherichia coli

Molecule: N#CC(C#N)=NNc1cccc(Cl)c1 [CCCP]
- effect on proton motive force / membrane polarization [1]: rapidly depolarizes the membranes
- cytological phenotype (membrane, chromosome, permeability) (Bacillus subtilis): cells with uneven membrane staining and decondensed chromosomes

Molecule: C[C@@H](O)[C@H](NC(=O)c1ccc(C#Cc2ccc(CN3CCOCC3)cc2)cc1)C(=O)NO [CHIR-090]
- cytological profile (FIG. 1 summary) [2]: produces chains of cells with increased permeability

Molecule: CC1=C[C@]2(C)/C=C(C)/C=C/C[C@@H](O)/C=C3C=C/C(=C4\C(=O)O[C@]2(C[C@@H]1C)C4=O)OC/3 [Spirohexenolide A]
- DAPI staining intensity relative to untreated (WT) cells (E. coli imp strain): 5 ×
- antibacterial spectrum [3]: active against gram positive bacteria and the E. coli imp mutant

Molecule: [Na+].[O-]Cl [bleach]
- cytological profile (FIG. 1 summary) [2]: causes the chromosome to condense into a dramatic ribbon-like structure

Molecule: CC1=C(C(=O)O)N2C(=O)[C@@H](NC(=O)[C@H](N)c3ccccc3)[C@H]2SC1 [cephalexin]
- cell length (E. coli strain JP750 [4]): elongated
- chromosome shape (E. coli strain JP750 [5]): chromosome shape is not affected
- cytological profile (FIG. 1 summary) [2]: produces elongated cells with multiple chromosomes

Molecule: O=C(N[C@H](CO)[C@H](O)c1ccc([N+](=O)[O-])cc1)C(Cl)Cl [chloramphenicol]
- MIC ([6]; LB, overnight at 30° C.): 5 µg/mL (≈ 15.5 µM)
- chromosome morphology (E. coli strain JP750 [4]): caused chromosomes to form rings
- distance between edge of chromosome and cell pole (E. coli strain JP750 [4]; lethal dose (5 μg/ml), two hours): dramatic increase
- chromosomes exhibiting doughnut or ring shape (E. coli strain JP750 [4]): 98%
- cytological profile (FIG. 1 summary) [2]: leads to a toroidal chromosome and wider cells

Molecule: COc1ccc(Cl)c(C)c1C(=O)O[C@@H]1C[C@H](O[C@H]2[C@H](O)C[C@H](O[C@H]3CCC[C@@H]4[C@@H]3C=C[C@H]3CCCC/C=C/[C@@H]5C=C(C(=O)O)[C@H](C)C[C@]56OC(=O)C(=C6O)OC(=O)[C@@]43C)O[C@@H]2C)O[C@H](C)[C@H]1O [chlorothricin]
- DAPI staining (E. coli imp strain): increased DAPI staining
- antibacterial spectrum [3]: active against gram positive bacteria and the E. coli imp mutant

Molecule: NC[C@H]1O[C@H](O[C@H]2[C@H](O)[C@@H](O[C@H]3O[C@H](CO)[C@@H](O)[C@H](N)[C@H]3O)[C@H](N)C[C@@H]2N)[C@H](O)[C@@H](O)[C@@H]1O [kanamycin]
- MIC ([6]; LB, overnight at 30° C.): 50 µg/mL (≈ 103 µM)

Molecule: CCn1cc(C(=O)O)c(=O)c2ccc(C)nc21 [nalidixic acid]
- MIC [6]: 0.5 µg/mL (≈ 2.15 µM)
- chromosome morphology (E. coli strain JP750 [4]): elongated chromosomes
- SeqA-GFP foci distribution (E. coli strain JP750 [4]; LB, 30° C., FIG. 2): highly elongated chromosomes in which the SeqA foci are clustered together
- cell length (E. coli strain JP750 [4]): caused elongation
- effect on growth (optical density at 600 nm) (E. coli; five-fold below the MIC): no detectable effect on growth
- effect on growth (E. coli; lethal dose (1×MIC)): reduced growth
- cytological profile (FIG. 1 summary) [2]: produces elongated cells with centrally localized and fragmented DNA

Molecule: CC1(C)S[C@@H]2[C@H](NC(=O)Cc3ccccc3)C(=O)N2[C@H]1C(=O)O [penicillin G]
- cytological profile (FIG. 1 summary) [2]: causes chromosome condensation and lysis
- cytological phenotype (membrane, chromosome, permeability) (Bacillus subtilis): cells with condensed chromosomes that lyse at various times

Molecule: [H]/N=C(/N)N[C@H]1[C@H](O)[C@@H](O)[C@H](O[C@@H]2O[C@@H](C)[C@](O)(C=O)[C@H]2O[C@@H]2O[C@@H](CO)[C@H](O)[C@@H](O)[C@@H]2NC)[C@@H](N/C(N)=N\[H])[C@@H]1O [streptomycin]
- MIC ([6]; LB, overnight at 30° C.): 50 µg/mL (≈ 86 µM)
- chromosome morphology (E. coli strain JP750 [4]): condensed chromosomes but not ring formation

Molecule: CN(C)[C@@H]1C(O)=C(C(N)=O)C(=O)[C@@]2(O)C(O)=C3C(=O)c4c(O)cccc4[C@@](C)(O)[C@H]3C[C@@H]12 [tetracycline]
- MIC ([6]; LB, overnight at 30° C.): 20 µg/mL (≈ 45 µM)
- chromosomes exhibiting doughnut or ring shape (E. coli strain JP750 [4]): 98%

Molecule: COc1cc(Cc2cnc(N)nc2N)cc(OC)c1OC [trimethoprim]
- cytological profile (FIG. 1 summary) [2]: condense the chromosome without affecting cell width

Molecule: CN[C@H](CC(C)C)C(=O)N[C@H]1C(=O)N[C@@H](CC(N)=O)C(=O)N[C@H]2C(=O)N[C@H]3C(=O)N[C@H](C(=O)N[C@H](C(=O)O)c4cc(O)cc(O)c4-c4cc3ccc4O)[C@H](O)c3ccc(c(Cl)c3)Oc3cc2cc(c3O[C@@H]2O[C@H](CO)[C@@H](O)[C@H](O)[C@H]2O[C@H]2C[C@](C)(N)[C@H](O)[C@H](C)O2)Oc2ccc(cc2Cl)[C@H]1O [vancomycin]
- effect on proton motive force / membrane polarization [1]: no effect on PMF
- cytological profile (FIG. 1 summary) [2]: produces large internal membrane vesicles
- cytological phenotype (membrane, chromosome, permeability) (Bacillus subtilis): internal membrane vesicles and increased DAPI and Sytox permeability in a subset of the cells

Molecule: nisin
- DAPI staining intensity relative to untreated (WT) cells (E. coli imp strain): 5 ×
- effect on proton motive force / membrane polarization [1]: rapidly collapse the proton motive force (PMF)
- cytological profile (FIG. 1 summary) [2]: show increased permeability at early times
- cytological phenotype (membrane, chromosome, permeability) (Bacillus subtilis): increased DAPI and Sytox staining

Molecule: polymyxin B
- cytological profile compared with reference (E. coli strain JP750 [4]; two hours at the MIC): cytological profile similar to CHIR-090
